Measurements taken from paper PMC7570567, “Attempts to Target Staphylococcus aureus Induced Osteomyelitis Bone Lesions in a Juvenile Pig Model by Using Radiotracers” (Molecules, 2020).
Where a SMILES comes first, the peptide text is derived from it. Bridges are numbered along the chain shown (N, C = ends). The star is where a group is joined. DOTA = O=C(O)CN1CCN(CC(=O)O)CCN(CC(=O)*)CCN(CC(=O)O)CC1; AEEA = NCCOCCOCC(=O)O

Key:
[1] = system: Staphylococcus aureus induced osteomyelitis (OM) lesions; assay: Static PET/CT tracer uptake in S. aureus induced osteomyelitis lesions, juvenile pig model; details: for Standard uptake values (SUV) in OM lesions: static whole-body PET/CT about 1 h after i.v. tracer injection, day 6-7 after S. aureus S54F9 inoculation
From the text: (§1) Fifteen domestic pigs, all clinically healthy, specific pathogen-free Danish Landrace Yorkshire cross-bred female pigs aged 8–9 weeks weighing 18.3–24.5 kg, were purchased from local commercial pig farmers. After at least one week of acclimatization, the pigs fasted over-night. Then they were premedicated with s-ketamine (Pfizer, Ballerup, Denmark) and midazolam (B. Braun Medical, Frederiksberg, Denmark) intramuscularly and anesthetized with propofol (B. Braun Medical, Frederiksberg, Denmark) intravenously. Finally, they were inoculated with a well-characterized porcine strain of S. aureus S54F9 (approximately 10,000 CFU/kg body weight) into the femoral artery of the right hind limb to induce OM in that limb, as described elsewhere. […] The pigs were all treated with 30–45 µg/kg buprenorphine (Indivior, Berkshire, United Kingdom) intramuscularly thrice daily from the time before inoculation and until scanning at day 6 and 7 after inoculation. After scanning, pigs were euthanized with an overdose of pentobarbitone (Scan Vet Animal Health, Fredensborg, Denmark) while still under anesthesia. Humane endpoints were: anorexia for more than 24 h, superficial respiration, the inability to stand up, or signs of systemic infection. […] The environment was characterized by a room temperature of 20 °C, relative humidity of 51–55%, 12 h in light/12 h in dark cycles, an exchange of air at least eight times per hour. Pigs were fasted overnight before anesthesia.
(§2) Osteomyelitis was verified by CT imaging, necropsy, histology, and/or bacterial cultivation.
(§3) The average injected activity was a median of 760 MBq (range 348–848 MBq) of [^68Ga]Ga-DOTA-K-A9, corresponding to ~17–46 MBq/kg and median 475 MBq (range 65–500 MBq) of [^68Ga]Ga-DOTA-GSGK-A11, corresponding to ~3–23 MBq/kg. PET was performed median ~60 min (60–61min) after injection of [^68Ga]Ga-DOTA-K-A9 (pigs 4–6, Table 1) and ~62 min (62–62 min) after injection of [^68Ga]Ga-DOTA-GSGK-A11 (pigs 7–8, Table 1) in the jugular vein.
(§4) Fluoride-18 was produced via the ^18O (p,n) ^18F nuclear reaction using a cyclotron. The target content was passed through a QMA-light Sep-Pak (Waters, Hedehusene, Denmark) to trap F-18. The solution was washed with 10 mL sterile water for injection (10 mL) to remove any residual [^18O]H2O and then dried with an argon stream. [^18F]NaF was set free by eluting the QMA Sep-Pak with 10 mL NaHCO3 and 10–20 mL air into the product vial. The average injected activity was as median 184 MBq (range 165–196 MBq), corresponding to ~8–10 MBq/kg. The PET was performed ~57 min (33–78 min) after injection of [^18F]NaF (pigs 9–13, Table 1).
(§5) The average injected activity was median 117 MBq (range 109–120 MBq), corresponding to ~5–6 MBq/kg.
(§6) The average injected activity was as median 178 MBq (range 126–253 MBq), corresponding to ~8–12 MBq/kg. The PET was performed ~72 min (60–126 min, early scan) and 139 min (118–186 min, late scan) after injection of [^68Ga]Ga-DOTA-Siglec-9 (pigs 1–3 and 12–15, Table 1).
(§7) ^18F were produced at the PET Center Aarhus using either a PETtrace 800 series cyclotron (GE Healthcare, Uppsala, Sweden) or a Cyclone 18/18 cyclotron (IBA, Louvain La Neuve, Belgium). [^18F]FDG was produced by a standard procedure applying a GE Healthcare MX Tracerlab synthesizer, Mx cassettes supplied by Rotem Industries (Arava, Israel), and chemical kits supplied by ABX GmbH (Radeberg, Germany). […] The median injected activity was 125 MBq (range 94–497 MBq), corresponding to ~5–24 MBq/kg. The PET was performed ~61 min (50–76 min) after injection of [^18F]FDG (pigs 1–15, Table 1).
(§8) The pigs were scanned at locations; Aalborg and Aarhus PET Centers. […] They were in propofol anesthesia and mechanically ventilated throughout the scan. Reflexes, pulse, oxygen saturation, and body temperature were monitored.

[2] = system: S. aureus inoculation abscess / soft tissue infection; assay: PET uptake in infected soft tissue (inguinal inoculation abscess, lymph node) of pigs
From the text: as §1, §6, §7, §8

[3] = Whole-body PET biodistribution and excretion of tracers in pigs (MIPs); type: in vivo, pig
From the text: Reflexes, pulse, oxygen saturation, and body temperature were monitored. […] In the present study, only the whole-body static PET/CT scans are presented.

[4] = system: vascular adhesion protein 1, VAP-1; details: cited from earlier work
From the text: The PET tracer [^68Ga]Ga-DOTA-Siglec-9 binds to a protein involved in leukocyte extravasations (vascular adhesion protein 1, VAP-1). Only recently, we have analyzed the dynamic data. […] However, the distribution volume for the uptake of soft tissue infections was elevated, concluding the tracer has a role for soft tissue infections ...

[5] = Static PET/CT tracer uptake in S. aureus induced osteomyelitis lesions, juvenile pig model; details: pig, in vivo, iv, Standard uptake values (SUV) in OM lesions
From the text: as §1, §2, §3, §4, §5, §6, §7, §8

[6] = system: osteomyelitis lesions; details: pigs; cited from earlier work
From the text: We have previously used ^99mTc-label […] ([^99mTc]Tc-DPD) to examine bone remodeling in pigs. […] We, therefore, moved on to use [^18F]NaF in the present study because [^18F]NaF though acting through similar uptake mechanisms as [^99mTc]Tc-DPD, [^18F]NaF is supposed to have a two-fold higher uptake in bones and a better sensitivity for metastatic osteoblastic metastases.

With `OC[C@H]1OC(O)[C@H]([18F])[C@@H](O)[C@@H]1O` (stereo partly drawn) [[^18F]FDG, [^18F]-fluorodeoxyglucose] the “Standard uptake values (SUV) in OM lesions” value (from here on “Standard uptake values (SUV)”) ([1]; pig 1, 3 lesions) was 4–7.3, the “Standard uptake values (SUV)” value ([1]; pig 2, 4 lesions) was 2.3–5.9 and the “Standard uptake values (SUV)” value ([1]; pig 3, 5 lesions) was 2.9–4.5. The “Standard uptake values (SUV)” value ([1]; pig 4, 2 lesions) was 10.5–16.3, the “Standard uptake values (SUV)” value ([1]; pig 5, 3 lesions) was 3.4–9 and the “Standard uptake values (SUV)” value ([1]; pig 6, 4 lesions) was 4–9.2. The “Standard uptake values (SUV)” value ([1]; pig 7, 3 lesions) was 3–6.4, the “Standard uptake values (SUV)” value ([1]; pig 8, 2 lesions) was 2.4–8 and the “Standard uptake values (SUV)” value ([1]; pig 9, 4 lesions) was 5.4–5.9. The “Standard uptake values (SUV)” value ([1]; pig 10, 3 lesions) was 4.4–5.1, the “Standard uptake values (SUV)” value ([1]; pig 11, 5 lesions) was 1–3.9 and the “Standard uptake values (SUV)” value ([1]; pig 12, 1 lesion) was 6.1. The “Standard uptake values (SUV)” value ([1]; pig 13, 2 lesions) was 7.8–10.1, the “Standard uptake values (SUV)” value ([1]; pig 14, 3 lesions) was 4–7.8 and the “Standard uptake values (SUV)” value ([1]; pig 15, 1 lesion) was 3.6. For the same compound, the “Number of OM lesions in which the tracer accumulated distinguishably” value ([1]; static PET ~61 min after injection, pigs 1-15) was 45 of the 45, the “Uptake in hyperplasic medial iliacus lymph node of the infected side compared to the lymph node in the non-infected left hind limb” value ([2]; pig 12) was “increased” and the “Change of activity in the margin of the abscess in the static images” value ([2]; pig 12, static images acquired after 60 min, compared to 10-30 min) was “increased slightly”.

With `[18F-].[Na+]` [[^18F]NaF] the “Standard uptake values (SUV)” value ([1]; pig 9, 4 lesions) was 9.2–13.6, the “Standard uptake values (SUV)” value ([1]; pig 10, 3 lesions) was 15.2–17 and the “Standard uptake values (SUV)” value ([1]; pig 11, 5 lesions) was 5.7–19.2. For the same compound, the “Standard uptake values (SUV)” value ([1]; pig 12, 1 lesion) was 19.8, the “Standard uptake values (SUV)” value ([1]; pig 13, 2 lesions) was 7.8–17.6 and the “Tracer accumulation in porcine OM lesions (in words)” value ([1]; static PET, K-A9 9 lesions, GSGK-A11 5, NaF 15, ubiquicidin 12, Siglec-9 19 lesions (early and late images)) was “no accumulation”. For the same compound, the Route of excretion ([3]; pigs, whole-body PET, maximum intensity projections) was “excreted by the kidneys” and the “Distribution of the tracer in the body outside OM lesions” value ([3]; pigs, whole-body PET/CT) was “distributed to the growth zones of the bones”.

In the case of `CC(C)C[C@@H]1NC(=O)CNC(=O)[C@H](CCCNC(=N)N)NC(=O)[C@H](Cc2c[nH]c3ccccc23)NC(=O)[C@H](CO)NC(=O)[C@H](CC(C)C)NC(=O)[C@H](CO)NC(=O)[C@H](CC(C)C)NC(=O)[C@H](CCCNC(=N)N)NC(=O)[C@H](C)NC(=O)[C@@H](NC(=O)COCCOCCNC(=O)CN2CCN(CC(=O)O)CCN(CC(=O)O)CCN(CC(=O)O)CC2)CSSC[C@@H](C(=O)N2CCC[C@H]2C(=O)N[C@@H](CO)C(=O)N[C@@H](CCCCN)C(N)=O)NC(=O)[C@H](CC(C)C)NC(=O)[C@H]([C@@H](C)O)NC1=O` [[^68Ga]Ga-DOTA-Siglec-9, metal not drawn] ({DOTA-AEEA}-CARLSLSWRGLTLCPSK-NH2; disulfide 1-14; N-terminus and C-terminus assumed), the “Distribution volume for the uptake of soft tissue infections” value ([4]; pig, in vivo) is listed as “elevated”, the “Metabolism of the tracer in vivo” value ([4]; pig, in vivo) is listed as “metabolized very quickly” and the “Uptake in OM” value ([4]; pig, in vivo) is listed as “no increased”. The Kinetics of uptake ([4]; pigs, modeled with the rev2TCM (4 k-parameters)) was “reversible kinetics”, the SUV [5] was 1.3 SUV and the “Tracer accumulation in porcine OM lesions (in words)” value ([1]; pig, in vivo) was “no tracer activity”. The “Distribution of the tracer in the body outside OM lesions” value ([3]; pig, in vivo) was “accumulated in dorsocaudal parts of both lungs”, the “Uptake in the margin of an inguinal abscess adjacent to the S. aureus inoculation site” value ([2]; pig 12, images acquired 10 to 30 min after tracer injection) was “marked” and the “Change of activity in the margin of the abscess in the static images” value ([2]; pig, in vivo) was “decreased”.

For “^99mTc-label methylene diphosphate [[^99mTc]Tc-DPD]”, the “Tracer uptake in the osteomyelitis lesions” value [6] is given as “did not observe any tracer uptake”.
